Assay results: patent US20070149555A1, “Prophylatic and/or therapeutic agents for chronic musculoskeletal pain” (Kyowa Hakko Kogyo Co., Ltd, priority 2004, published 2007)

Columns and labels:
[1] = tested on: hyperalgesia rats induced with an acidic physiological saline; assay: Effect for pain relief in a hyperalgesia model of rat (acidic physiological saline-induced hyperalgesia, von Frey test); type: in vivo; settings: male SD rats, orally administered 5 and 10 mg/kg, 0.5-3 hours after administration (FIG. 1)
Description: Test Example 1: Effect for Pain Relief in a Hyperalgesia Model of Rat
An acidic physiological saline-induced hyperalgesia model, which is known as a model of diseases accompanied by chronic musculoskeletal pain was made according to the method described in Muscle & Nerve 24, p. 37-46 (2001) with a slight modification.
In this test, male SD rats (Sprague-Dawley rats; 6 weeks of age at the start of the test) were employed. Under ether anesthesia, 100 μl of physiological saline adjusted to pH 4 with acetic acid was injected to the rat's right gastrocnemius muscle twice at an interval of 5 days. At 10th and 11th days from the 2nd injection, the following test was conducted. […] In this connection, the pain threshold of normal rats was approximately 11 g.
The above hyperalgesia rats induced with an acidic physiological saline were placed in a stainless steel cage (750width×210depth×170height in mm) and accommodated thereto for at least 20 minutes. Thereafter, the pain threshold (g) was determined prior to administration of the test compound (0 hour) and 0.5 hour, 1 hour, 1.5 hours, 2 hours and 3 hours after the administration. […]
Hyperalgesia was evaluated by the von Frey test, and the results were indicated by the thresholds (g). […] The pain threshold (g) was calculated according to the W. J. Dixon's up-down method (Annual Review of Pharmacology and Toxicology, 20, p. 441-462 (1980)).

[2] = tested on: acidic physiological saline-induced hyperalgesia model; assay: Preventive effect on development of hyperalgesia in a rat model (acidic physiological saline, von Frey test); type: in vivo; settings: male SD rats, 3 mg/kg orally once daily for 10 days, measured on the day following the final administration (FIG. 2)
Description: Test Example 2: Preventive Effect on Development of Hyperalgesia in a Rat Model The following experiment was carried out according to the method as described in Test Example 1. In this test, male SD rats (Sprague-Dawley rats; 6 weeks of age at the start of the test) were employed as 10 rats for each treatment-group. Under ether anesthesia, 100 μl of physiological saline adjusted to pH 4 with acetic acid was injected to the rat's right gastrocnemius muscle twice at an interval of 5 days. Thirty minutes after the 2nd injection and once daily thereafter, a test compound or solvent was administered repeatedly at a volume of 5 ml/kg to the above rats for a total of 10 days. The test compound was used as a suspension in 0.5% MC aqueous solution and orally administered (a group treated with Test Compound), and in a group to which a solvent was administered 0.5% MC aqueous solution alone was orally administered (a group treated with Solvent). On the day following the final administration, the pain threshold (g) was measured in the same manner as the von Frey test as described in Test Example 1. The above rats were placed in a stainless steel cage (750width×210depth×170height in mm) and accommodated thereto for at least 20 minutes; after that the measurement was conducted. From the above results, the followings were elucidated.

`CCn1c(=O)c2c(nc(/C=C/c3ccc(OC)c(OC)c3)n2C)n(CC)c1=O` [Compound 2] was tested, and the “pain threshold in comparison with that of the group treated with Solvent” value [1] was “greatly increased” and the “pain threshold (development of hyperalgesia)” value [2] was “no decrease”.
